Experimental data reported in PMC4719150 (Biochemistry, 2015).
Read-outs that look alike come from different tables or passages of the source. Numbered stars: 1 amine (or outer) side, 2 acyl side, 3 side chain; on linkers, the order of the positions; unused ones are H or OH. Bridge positions count the residues as written; N and C are the ends. Square brackets hold non-standard residues; d marks the D form. Peptide text beside a SMILES is read from it. I, II: the chains in the order shown. Actinocin(9to1) = Cc1c2oc3c(C)ccc(C(=O)[*:1])c3nc-2c(C(=O)[*:2])c(N)c1=O; NMeV = CN[C@H](C(=O)O)C(C)C; Sar = CNCC(=O)O

Tests used:
[1] = tested on: recRSV-L19FD489E-fireSMASh; assay: Peak progeny virus titers after incubation with ASV; assay type: cell-based, respiratory syncytial virus; conditions: 3 μM ASV versus vehicle
[2] = tested on: fireSMASh (firefly luciferase fused to SMASh tag); assay: Firefly luciferase activity after virus growth in the presence of ASV; assay type: cell-based; conditions: growth of recRSV-L19FD489E-fireSMASh in the presence of 3 μM ASV; 44 hours post-infection
recIAV WSN-NanoLuc [3] = assay: microbe, parasite or virus in culture; assay type: cell-based; conditions: Influenza A virus, BEAS-2B, 40 h, read-out: % Inhibition (anti-IAV)
recRSV A2-L19F-renilla = assay: microbe, parasite or virus in culture; assay type: cell-based; conditions: human respiratory syncytial virus, BEAS-2B, read-out: EC50 RSV A2-L19F-renilla
[4] = tested on: recRSV A2-L19FD489E-fireSMASh; conditions: for EC50: read-out: EC50 RSV A2-L19FD489E-fireSMASh
in vitro = conditions: human
recIAV WSN-NanoLuc [5] = conditions: for EC50: read-out: EC50 IAV WSN-nanoLuc
recIAV WSN-NanoLuc [6] = assay: microbe, parasite or virus in culture; conditions: Influenza A virus, BEAS-2B, read-out: EC50 IAV WSN-nanoLuc
BEAS-2B cells = conditions: uninfected BEAS-2B cells, highest concentration assessed 10 μM, tox = less than 50% cell viability after 44 hours at ≤10 μM; for CC50: read-out: CC50 (PrestoBlue cell viability)

C=C[C@@H]1C[C@]1(NC(=O)[C@@H]1C[C@@H](Oc2ncc(OC)c3ccc(Cl)cc23)CN1C(=O)[C@@H](NC(=O)OC(C)(C)C)C(C)(C)C)C(=O)NS(=O)(=O)C1CC1 [ASV, Asunaprevir]
effect on progeny virus titers [1]: no effect
reduction of firefly luciferase activity [2]: approximately 90%

Cc1c2oc3c(C)ccc(C(=O)N[C@@H]4C(=O)N[C@H](C(C)C)C(=O)N5CCC[C@H]5C(=O)N(C)CC(=O)N(C)[C@@H](C(C)C)C(=O)O[C@@H]4C)c3nc-2c(C(=O)N[C@@H]2C(=O)N[C@H](C(C)C)C(=O)N3CCC[C@H]3C(=O)N(C)CC(=O)N(C)[C@@H](C(C)C)C(=O)O[C@@H]2C)c(N)c1=O [Actinomycin D] (I: T[dV]P[Sar][NMeV] / II: T[dV]P[Sar][NMeV]; ester I:1-I:C, II:1-II:C; linker I:N-II:N via Actinocin(9to1))
inhibition at 5 µM (recIAV WSN-NanoLuc [3]): 104 ± 1.5%

Nc1nc(N)c2nc(CNc3ccc(C(=O)N[C@@H](CCC(=O)O)C(=O)O)cc3)cnc2n1 [Aminopterin]
EC50 (recRSV A2-L19F-renilla): 0.05 µM
SI RSV [CC50/EC50] [4]: SIIAV 111 SIRSV 143 conf. broad spectrum [79], [80]
CC50 (in vitro): 10 µM
SI IAV [CC50/EC50] (recIAV WSN-NanoLuc [5]): SIIAV 111 SIRSV 143 conf. broad spectrum [79], [80]
EC50 (recIAV WSN-NanoLuc [6]): 0.09 µM

CC(=O)OC[C@H]1O[C@@H]([S-])[C@H](OC(C)=O)[C@@H](OC(C)=O)[C@@H]1OC(C)=O.CCP(CC)CC.[Au+] [Auranofin]
CC50 (PrestoBlue cell viability) (BEAS-2B cells): tox^d

COc1cc2nc(N3CCCN(C)CC3)nc(NC3CCN(Cc4ccccc4)CC3)c2cc1OC [BIX 01294]
EC50 RSV A2-L19FD489E-fireSMASh [4]: inactive^e
CC50 (in vitro): > 10 µM
EC50 IAV WSN-nanoLuc (recIAV WSN-NanoLuc [5]): inactive^e

O=C1C(=Cc2ccccc2)C[C@@]2(O)[C@H]3Cc4ccc(O)c5c4[C@@]2(CCN3CC2CC2)[C@H]1O5 [BNTX-7]
SI RSV [CC50/EC50] [4]: SIRSV >4
EC50 [4]: 2.5 µM
EC50 IAV WSN-nanoLuc (recIAV WSN-NanoLuc [5]): inactive^e
effect on IAV reporter strain (recIAV WSN-NanoLuc [5]): unaffected
CC50 (BEAS-2B cells): > 10 µM

Cc1c(-c2ccc(-c3ccccc3F)cc2)nc2ccc(F)cc2c1C(=O)O [Brequinar]
EC50 (recRSV A2-L19F-renilla): 1.8 µM
SI RSV [CC50/EC50] [4]: SIIAV >3.8 SIRSV >6.3 conf. broad spectrum [81], [82]
CC50 (in vitro): > 10 µM
SI IAV [CC50/EC50] (recIAV WSN-NanoLuc [5]): SIIAV >3.8 SIRSV >6.3 conf. broad spectrum [81], [82]
EC50 (recIAV WSN-NanoLuc [6]): 2.6 µM

CNc1ccc2oc(C[C@H]3O[C@@]4(CC[C@H]3C)O[C@H]([C@H](C)C(=O)c3ccc[nH]3)[C@H](C)C[C@H]4C)nc2c1C(=O)O [Calcimycin]
CC50 (PrestoBlue cell viability) (BEAS-2B cells): tox^d

CCCCCCCCCCCCCCCCCCOCC(COP(=O)([O-])OCC[N+](C)(C)C)OC (centres unmarked) [ET-18-OCH3]
EC50 RSV A2-L19FD489E-fireSMASh [4]: inactive^e
EC50 IAV WSN-nanoLuc (recIAV WSN-NanoLuc [5]): inactive^e
CC50 (BEAS-2B cells): > 10 µM

CC[C@H]1CN2CCc3cc(OC)c(OC)cc3[C@@H]2C[C@@H]1C[C@H]1NCCc2cc(OC)c(OC)cc21 [Emetine]
CC50 (PrestoBlue cell viability) (BEAS-2B cells): tox^d

COc1cccc2c1C(=O)c1c(O)c3c(c(O)c1C2=O)C[C@@](O)(C(=O)CO)C[C@@H]3O[C@H]1C[C@H](N)[C@@H](O)[C@H](C)O1 [Epirubicin]
inhibition at 5 µM (recIAV WSN-NanoLuc [3]): 75 ± 3.1%

COc1cc([C@@H]2c3cc4c(cc3[C@@H](O[C@@H]3O[C@@H]5CO[C@@H](C)O[C@H]5[C@H](O)[C@H]3O)[C@H]3COC(=O)[C@H]23)OCO4)cc(OC)c1O [Etoposide]
inhibition at 5 µM (recIAV WSN-NanoLuc [3]): 56 ± 5.6%

CC1=C(/C=C/C(C)=C/C=C/C(C)=C/C(=O)Nc2ccc(O)cc2)C(C)(C)CCC1 [Fenretinide]
EC50 (recRSV A2-L19F-renilla): 4.8 µM
SI RSV [CC50/EC50] [4]: SIRSV >2.8 Dengue [62], HIV [61]
CC50 (in vitro): > 10 µM
EC50 IAV WSN-nanoLuc (recIAV WSN-NanoLuc [5]): inactive^e
effect on IAV reporter strain (recIAV WSN-NanoLuc [5]): unaffected

Nc1ccn([C@@H]2O[C@H](CO)[C@@H](O)C2(F)F)c(=O)n1 [Gemcitabine]
EC50 (recRSV A2-L19F-renilla): 0.05 µM
SI RSV [CC50/EC50] [4]: SIIAV >100 SIRSV >111 HIV, IAV [49], [50]
CC50 (in vitro): > 10 µM
SI IAV [CC50/EC50] (recIAV WSN-NanoLuc [5]): SIIAV >100 SIRSV >111 HIV, IAV [49], [50]
EC50 (recIAV WSN-NanoLuc [6]): 0.1 µM

COC(=O)C[C@](O)(CCCC(C)(C)O)C(=O)O[C@@H]1C(OC)=C[C@]23CCCN2CCc2cc4c(cc2[C@H]13)OCO4 [Homoharringtonine]
inhibition at 5 µM (recIAV WSN-NanoLuc [3]): 90 ± 2.6%

CC(=O)[C@]1(O)Cc2c(O)c3c(c(O)c2[C@@H](O[C@H]2C[C@H](N)[C@H](O)[C@H](C)O2)C1)C(=O)c1ccccc1C3=O [Idarubicin]
inhibition at 5 µM (recIAV WSN-NanoLuc [3]): 97 ± 1%
CC50 (PrestoBlue cell viability) (BEAS-2B cells): tox^d

Oc1ccc(/C=C/c2ccc(/C=C/c3ccc(O)cc3)c(Br)c2)cc1 [K114]
EC50 RSV A2-L19FD489E-fireSMASh [4]: inactive^e
EC50 IAV WSN-nanoLuc (recIAV WSN-NanoLuc [5]): inactive^e
CC50 (BEAS-2B cells): > 10 µM

Nc1nc2c(c(=O)[nH]1)C[C@@H](CCc1ccc(C(=O)N[C@@H](CCC(=O)O)C(=O)O)cc1)CN2 [Lometrexol]
CC50 (PrestoBlue cell viability) (BEAS-2B cells): tox^d

CN(Cc1cnc2nc(N)nc(N)c2n1)c1ccc(C(=O)N[C@@H](CCC(=O)O)C(=O)O)cc1 [Methotrexate]
inhibition at 5 µM (recIAV WSN-NanoLuc [3]): 100 ± 0.6%

CCOC(=O)C1=C(C)NC(C)=C(C(=O)OC)C1c1cccc([N+](=O)[O-])c1 (centres unmarked) [Nitrendipine]
EC50 RSV A2-L19FD489E-fireSMASh [4]: inactive^e
CC50 (in vitro): > 10 µM
EC50 IAV WSN-nanoLuc (recIAV WSN-NanoLuc [5]): inactive^e

Cn1c(=O)c(-c2c(Cl)cccc2Cl)cc2cnc(Nc3ccc(N4CCOCC4)cc3)nc21 [PD173952]
CC50 (PrestoBlue cell viability) (BEAS-2B cells): tox^d

CCN(CC)CCOc1ccc(Nc2ncc3cc(-c4c(Cl)cccc4Cl)c(=O)n(C)c3n2)cc1 [PD-166285]
CC50 (PrestoBlue cell viability) (BEAS-2B cells): tox^d

Nc1nc2c(ncn2CCOCP(=O)(O)O)c(=O)[nH]1 [PMEG]
SI RSV [CC50/EC50] [4]: SIIAV 50 SIRSV 100 HPV [67]
potency against RSV relative to IAV [4]: approximately 2 fold
EC50 [4]: 0.1 µM
SI IAV [CC50/EC50] (recIAV WSN-NanoLuc [5]): SIIAV 50 SIRSV 100 HPV [67]
EC50 (recIAV WSN-NanoLuc [5]): 0.2 µM
CC50 (BEAS-2B cells): 10 µM

c1cnc2c(c1)ccc1cccnc12 [Phenanthroline]
CC50 (in vitro): 2.4 µM

Cc1nc2ccc(CN(C)c3ccc(C(=O)N[C@@H](CCC(=O)O)C(=O)O)s3)cc2c(=O)[nH]1 [Raltitrexed]
inhibition at 5 µM (recIAV WSN-NanoLuc [3]): 60 ± 6.5%

NC(=O)c1ncn([C@@H]2O[C@H](CO)[C@@H](O)[C@H]2O)n1 [Ribavirin]
EC50 (recRSV A2-L19F-renilla): 2.9 µM
SI RSV [CC50/EC50] [4]: SIIAV >2.2 SIRSV >3.9 broad spectrum [84]
CC50 (in vitro): > 10 µM
SI IAV [CC50/EC50] (recIAV WSN-NanoLuc [5]): SIIAV >2.2 SIRSV >3.9 broad spectrum [84]
EC50 (recIAV WSN-NanoLuc [6]): 4.5 µM

CN(CCOc1ccc(CC2SC(=O)NC2=O)cc1)c1ccccn1 (centres unmarked) [Rosiglitazone]
inhibition at 5 µM (recIAV WSN-NanoLuc [3]): 35 ± 5%

C[n+]1cc2c3c(ccc2c2ccc4cc5c(cc4c21)OCO5)OCO3 [Sanguinarine]
CC50 (PrestoBlue cell viability) (BEAS-2B cells): tox^d

O=[N+]([O-])c1ccc2c(c1)S(=O)(=O)C=C2 [Stattic]
EC50 [4]: 5.9 µM
SI IAV [CC50/EC50] (recIAV WSN-NanoLuc [5]): SIIAV 3
EC50 (recIAV WSN-NanoLuc [5]): 3.3 µM
CC50 (BEAS-2B cells): 10 µM

CCN(CC)CCNC(=O)c1c(C)[nH]c(/C=C2\C(=O)Nc3ccc(F)cc32)c1C [Sunitinib]
CC50 (PrestoBlue cell viability) (BEAS-2B cells): tox^d

Cn1nnc2c(C(N)=O)ncn2c1=O [Temozolomide]
inhibition at 5 µM (recIAV WSN-NanoLuc [3]): 55 ± 3.2%

Nc1nc(N)c2nc(-c3ccccc3)c(N)nc2n1 [Triamterene]
EC50 RSV A2-L19FD489E-fireSMASh [4]: inactive^e
CC50 (in vitro): > 10 µM
EC50 IAV WSN-nanoLuc (recIAV WSN-NanoLuc [5]): inactive^e

CC(C)[C@]12O[C@H]1[C@@H]1O[C@]13[C@]1(O[C@H]1C[C@H]1C4=C(CC[C@@]13C)C(=O)OC4)[C@@H]2O [Triptolide]
EC50 (recRSV A2-L19F-renilla): 0.6 µM
inhibition at 5 µM (recIAV WSN-NanoLuc [3]): 103 ± 1.2%
CC50 (in vitro): 0.3 µM
SI (CC50/EC50) value at dose-response testing (recIAV WSN-NanoLuc [5]): below two
EC50 (recIAV WSN-NanoLuc [6]): 0.15 µM

CC[C@]1(O)C[C@H]2CN(CCc3c([nH]c4ccccc34)[C@@](C(=O)OC)(c3cc4c(cc3OC)N(C=O)[C@H]3[C@@](O)(C(=O)OC)[C@H](OC(C)=O)[C@]5(CC)C=CCN6CC[C@]43[C@@H]65)C2)C1 [Vincristine]
inhibition at 5 µM (recIAV WSN-NanoLuc [3]): 50 ± 2.9%

CC(=O)N[C@H]1[C@H]([C@H](O)[C@H](O)CO)OC(C(=O)O)=C[C@@H]1N=C(N)N [Zanamivir]
EC50 RSV A2-L19FD489E-fireSMASh [4]: Inactive
CC50 (in vitro): > 10 µM
SI IAV [CC50/EC50] (recIAV WSN-NanoLuc [5]): SIIAV >500 IAV inhibitor [83]
EC50 (recIAV WSN-NanoLuc [6]): 0.02 µM
